Assay results from the NIST ThermoML archive (doi:10.1021/je400408w).

What was measured:
[1] = molar heat capacity at constant pressure; xn = mol fraction of the nth substance listed; details: 100 kPa, Liquid
[2] = molar heat capacity at constant pressure; details: 100 kPa, Liquid
[3] = 101.33 kPa, Liquid; for speed of sound: Pulse-echo method; for mass density: Vibrating tube method

Cc1ccc(Cl)cc1 [4-chlorotoluene] + O=C1CCCN1
molar heat capacity at constant pressure [J/K/mol], [1]
Details	293.15 K	298.15 K	303.15 K
x2 = 0	175.66	177.95	180.37
x2 = 0.0386	175.99	178.08	180.47
x2 = 0.0724	176.3	178.23	180.58
x2 = 0.1123	176.65	178.52	180.66
x2 = 0.1526	177.03	178.78	180.84
x2 = 0.1926	177.35	179.04	180.93
x2 = 0.2317	177.67	179.22	181.06
x2 = 0.2725	177.98	179.48	181.12
x2 = 0.3126	178.18	179.64	181.1
x2 = 0.3516	178.38	179.7	181.14
x2 = 0.3916	178.43	179.77	181.06
x2 = 0.4332	178.43	179.72	180.88
x2 = 0.4753	178.35	179.67	180.61
x2 = 0.5121	178.24	179.47	180.38
x2 = 0.5512	177.97	179.17	180.03
x2 = 0.5925	177.61	178.79	179.53
x2 = 0.6325	177.15	178.25	179.05
x2 = 0.6715	176.58	177.74	178.48
x2 = 0.7122	175.92	176.99	177.81
x2 = 0.7534	175.18	176.18	177
x2 = 0.7921	174.31	175.32	176.22
x2 = 0.8324	173.32	174.4	175.34
x2 = 0.8731	172.28	173.34	174.46
x2 = 0.9123	171.14	172.21	173.5
x2 = 0.9543	169.86	171	172.43

Cc1ccc(Cl)cc1 [4-chlorotoluene]
Details	mass density, 293.15 K [kg/m3]	mass density, 298.15 K [kg/m3]	mass density, 303.15 K [kg/m3]	molar heat capacity at constant pressure, 293.15 K [J/K/mol]	molar heat capacity at constant pressure, 298.15 K [J/K/mol]	molar heat capacity at constant pressure, 303.15 K [J/K/mol]	speed of sound, 293.15 K [m/s]	speed of sound, 298.15 K [m/s]	speed of sound, 303.15 K [m/s]
[2]	–	–	–	175.66	177.95	180.37	–	–	–
[3]	1069.27	1064.37	1059.46	–	–	–	1306.5	1288.4	1270.3

Cc1ccc(Cl)cc1 [4-chlorotoluene] + CN1CCCC1=O
molar heat capacity at constant pressure [J/K/mol], [1]
Details	293.15 K	298.15 K	303.15 K
x2 = 0	175.66	177.95	180.37
x2 = 0.0671	176.7	178.71	180.9
x2 = 0.1128	177.44	179.35	181.36
x2 = 0.1487	178.03	179.8	181.81
x2 = 0.1876	178.67	180.38	182.29
x2 = 0.2219	179.21	180.88	182.72
x2 = 0.2615	179.85	181.44	183.16
x2 = 0.2987	180.33	181.87	183.61
x2 = 0.3328	180.77	182.28	183.94
x2 = 0.3728	181.29	182.72	184.22
x2 = 0.4137	181.62	183.02	184.44
x2 = 0.4512	181.89	183.22	184.54
x2 = 0.4928	182.07	183.31	184.53
x2 = 0.5316	182.09	183.2	184.46
x2 = 0.5773	181.94	182.93	184.08
x2 = 0.6154	181.61	182.53	183.54
x2 = 0.6542	181.16	182.01	182.89
x2 = 0.6927	180.46	181.23	182.04
x2 = 0.7326	179.54	180.21	180.88
x2 = 0.7732	178.32	178.9	179.49
x2 = 0.8142	176.8	177.33	177.84
x2 = 0.8315	176	176.54	177.12
x2 = 0.8715	174.08	174.58	175.13
x2 = 0.9153	171.57	172.16	172.62
x2 = 0.9534	169.04	169.62	170.26

CN1CCCC1=O [N-methylpyrrolidone] + Cc1cccc(Cl)c1
[1], x1 = 1
Details	molar heat capacity at constant pressure [J/K/mol]
293.15 K	165.44
298.15 K	166.22
303.15 K	166.92

O=C1CCCN1 [2-pyrrolidinone] + Cc1ccc(Cl)cc1
[1], x1 = 1
Details	molar heat capacity at constant pressure [J/K/mol]
293.15 K	168.36
298.15 K	169.55
303.15 K	171.18

O=C1CCCN1 [2-pyrrolidinone] + Cc1ccccc1Cl
[1], x1 = 1
Details	molar heat capacity at constant pressure [J/K/mol]
293.15 K	168.36
298.15 K	169.55
303.15 K	171.18

O=C1CCCN1 [2-pyrrolidinone] + Cc1cccc(Cl)c1
[1], x1 = 1
Details	molar heat capacity at constant pressure [J/K/mol]
293.15 K	168.36
298.15 K	169.55
303.15 K	171.18
